The target in data set [1] is T1, Somatostatin receptor type 2 (Homo sapiens, UniProt P30874). As to the kind of experiment: Agonist activity at human SST2 expressed in CHO-K1 cells assessed as reduction in NKH477-induced intracellular cAMP accumulation. In kind it is functional, cell-based. On the technique in general: Cyclic AMP is a second messenger, typically raised through Gs and lowered through Gi signalling.

Data set [2] has as its target T1, Somatostatin receptor type 2. As to the kind of experiment: Agonist activity at SST2 (unknown origin).
Data set [3] has as its target Somatostatin receptor type 3 (Homo sapiens, UniProt P32745). Kind of data set: Agonist activity at SST3 (unknown origin).
Data set [4] addresses Somatostatin receptor type 4 (Homo sapiens, UniProt P31391). As to the kind of experiment: Agonist activity at SST4 (unknown origin).
In data set [5] the target is Somatostatin receptor type 1 (Homo sapiens, UniProt P30872). Kind of data set: Agonist activity at SST1 (unknown origin).
Data set [6] concerns the target T2, Cytochrome P450 3A4 (Homo sapiens, UniProt P08684). As to the kind of experiment: Inhibition of CYP3A4 (unknown origin). Type of data set: ADME.
The target in data set [7] is Voltage-gated inwardly rectifying potassium channel KCNH2 (Homo sapiens, UniProt Q12809). As to the kind of experiment: Inhibition of human ERG expressed in HEK293 cells. In kind it is cell-based.
The target of data set [8] is Somatostatin receptor type 5 (Homo sapiens, UniProt P35346). Kind of data set: Agonist activity at SST5 (unknown origin).
In data set [9] the target is Somatostatin receptor type 2 (Rattus norvegicus, UniProt P30680). As to the kind of experiment: Agonist activity at rat SST2.
The nature of data set [10]: Oral bioavailability in Sprague-Dawley rat at 10 mg/kg. Conditions: in vivo; call rule not given here. Type of data set: ADME, organism-based.
The target in the next data set is Cytochrome P450 2C19 (Homo sapiens, UniProt P33261). Kind of data set: Inhibition of CYP2C19 (unknown origin). In kind it is ADME.
The target of data set [11] is T2, Cytochrome P450 3A4. Kind of data set: Inhibition of CYP3A4 (unknown origin) at 10 uM. In kind it is ADME.
The target of a further data set is Cytochrome P450 2D6 (Homo sapiens, UniProt P10635). As to the kind of experiment: Inhibition of CYP2D6 (unknown origin). Type of data set: ADME.
A further data set addresses Cytochrome P450 2C9 (Homo sapiens, UniProt P11712). Kind of data set: Inhibition of CYP2C9 (unknown origin). Type of data set: ADME.

Broadly, the bioavailability is dose-corrected exposure relative to a reference, in per cent.

Molecules are shown by their SMILES. Where only a bound is given, the exact number is not on record here.

T1 sequence (P30874 whole entry): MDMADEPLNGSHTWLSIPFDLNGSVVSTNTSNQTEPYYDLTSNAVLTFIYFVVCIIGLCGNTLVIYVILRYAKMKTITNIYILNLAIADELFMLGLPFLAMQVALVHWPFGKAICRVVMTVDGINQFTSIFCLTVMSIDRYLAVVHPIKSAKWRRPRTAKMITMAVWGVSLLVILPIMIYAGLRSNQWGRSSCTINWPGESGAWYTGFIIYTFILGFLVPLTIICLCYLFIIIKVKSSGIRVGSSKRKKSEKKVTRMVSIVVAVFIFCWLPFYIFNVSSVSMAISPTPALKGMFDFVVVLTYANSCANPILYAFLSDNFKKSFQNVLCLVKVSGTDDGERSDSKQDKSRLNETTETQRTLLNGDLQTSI
Sequence of Somatostatin receptor type 5 (P35346 whole entry): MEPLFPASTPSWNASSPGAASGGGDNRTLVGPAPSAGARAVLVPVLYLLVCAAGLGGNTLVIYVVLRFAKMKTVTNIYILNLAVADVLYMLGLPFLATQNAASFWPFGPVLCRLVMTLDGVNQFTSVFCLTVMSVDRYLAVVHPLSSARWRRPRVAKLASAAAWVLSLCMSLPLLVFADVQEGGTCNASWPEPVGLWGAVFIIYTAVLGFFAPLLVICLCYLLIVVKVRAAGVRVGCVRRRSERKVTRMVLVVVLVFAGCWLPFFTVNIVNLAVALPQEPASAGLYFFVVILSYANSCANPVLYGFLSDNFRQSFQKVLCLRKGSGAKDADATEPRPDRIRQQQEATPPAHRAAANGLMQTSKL
Sequence of Somatostatin receptor type 4 (P31391 whole entry): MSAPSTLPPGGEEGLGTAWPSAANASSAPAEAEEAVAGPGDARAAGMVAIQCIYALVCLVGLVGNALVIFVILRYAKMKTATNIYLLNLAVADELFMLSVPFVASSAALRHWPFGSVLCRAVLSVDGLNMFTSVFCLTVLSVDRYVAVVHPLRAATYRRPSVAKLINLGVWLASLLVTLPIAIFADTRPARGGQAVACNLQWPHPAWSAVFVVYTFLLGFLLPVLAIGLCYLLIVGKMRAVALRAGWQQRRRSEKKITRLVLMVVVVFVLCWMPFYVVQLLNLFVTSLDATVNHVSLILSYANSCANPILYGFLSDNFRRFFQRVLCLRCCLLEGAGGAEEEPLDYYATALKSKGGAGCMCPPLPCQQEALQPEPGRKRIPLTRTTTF
Sequence of Somatostatin receptor type 1 (P30872 whole entry): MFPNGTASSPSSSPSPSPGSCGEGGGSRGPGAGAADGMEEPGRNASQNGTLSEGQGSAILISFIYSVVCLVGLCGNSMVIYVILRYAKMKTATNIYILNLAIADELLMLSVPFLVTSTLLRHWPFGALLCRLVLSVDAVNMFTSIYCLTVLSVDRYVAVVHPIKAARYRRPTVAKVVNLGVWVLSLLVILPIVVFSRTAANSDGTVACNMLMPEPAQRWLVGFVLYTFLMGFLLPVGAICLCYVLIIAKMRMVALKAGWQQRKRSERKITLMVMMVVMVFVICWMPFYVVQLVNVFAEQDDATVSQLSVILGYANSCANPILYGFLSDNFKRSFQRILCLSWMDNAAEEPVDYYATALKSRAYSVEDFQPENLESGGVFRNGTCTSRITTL
Sequence of Somatostatin receptor type 3 (P32745 whole entry): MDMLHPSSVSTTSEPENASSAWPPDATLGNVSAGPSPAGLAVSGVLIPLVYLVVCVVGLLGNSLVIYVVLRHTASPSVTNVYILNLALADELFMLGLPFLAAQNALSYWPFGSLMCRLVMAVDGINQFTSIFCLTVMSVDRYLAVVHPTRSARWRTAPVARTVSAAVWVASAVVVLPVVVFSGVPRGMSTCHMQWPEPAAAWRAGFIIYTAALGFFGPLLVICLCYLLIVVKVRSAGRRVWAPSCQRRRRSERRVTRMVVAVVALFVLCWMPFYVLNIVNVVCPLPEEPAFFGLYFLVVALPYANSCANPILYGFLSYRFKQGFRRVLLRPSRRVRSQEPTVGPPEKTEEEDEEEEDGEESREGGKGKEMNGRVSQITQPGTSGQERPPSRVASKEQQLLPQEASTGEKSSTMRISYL
Sequence of Voltage-gated inwardly rectifying potassium channel KCNH2 (Q12809 whole entry): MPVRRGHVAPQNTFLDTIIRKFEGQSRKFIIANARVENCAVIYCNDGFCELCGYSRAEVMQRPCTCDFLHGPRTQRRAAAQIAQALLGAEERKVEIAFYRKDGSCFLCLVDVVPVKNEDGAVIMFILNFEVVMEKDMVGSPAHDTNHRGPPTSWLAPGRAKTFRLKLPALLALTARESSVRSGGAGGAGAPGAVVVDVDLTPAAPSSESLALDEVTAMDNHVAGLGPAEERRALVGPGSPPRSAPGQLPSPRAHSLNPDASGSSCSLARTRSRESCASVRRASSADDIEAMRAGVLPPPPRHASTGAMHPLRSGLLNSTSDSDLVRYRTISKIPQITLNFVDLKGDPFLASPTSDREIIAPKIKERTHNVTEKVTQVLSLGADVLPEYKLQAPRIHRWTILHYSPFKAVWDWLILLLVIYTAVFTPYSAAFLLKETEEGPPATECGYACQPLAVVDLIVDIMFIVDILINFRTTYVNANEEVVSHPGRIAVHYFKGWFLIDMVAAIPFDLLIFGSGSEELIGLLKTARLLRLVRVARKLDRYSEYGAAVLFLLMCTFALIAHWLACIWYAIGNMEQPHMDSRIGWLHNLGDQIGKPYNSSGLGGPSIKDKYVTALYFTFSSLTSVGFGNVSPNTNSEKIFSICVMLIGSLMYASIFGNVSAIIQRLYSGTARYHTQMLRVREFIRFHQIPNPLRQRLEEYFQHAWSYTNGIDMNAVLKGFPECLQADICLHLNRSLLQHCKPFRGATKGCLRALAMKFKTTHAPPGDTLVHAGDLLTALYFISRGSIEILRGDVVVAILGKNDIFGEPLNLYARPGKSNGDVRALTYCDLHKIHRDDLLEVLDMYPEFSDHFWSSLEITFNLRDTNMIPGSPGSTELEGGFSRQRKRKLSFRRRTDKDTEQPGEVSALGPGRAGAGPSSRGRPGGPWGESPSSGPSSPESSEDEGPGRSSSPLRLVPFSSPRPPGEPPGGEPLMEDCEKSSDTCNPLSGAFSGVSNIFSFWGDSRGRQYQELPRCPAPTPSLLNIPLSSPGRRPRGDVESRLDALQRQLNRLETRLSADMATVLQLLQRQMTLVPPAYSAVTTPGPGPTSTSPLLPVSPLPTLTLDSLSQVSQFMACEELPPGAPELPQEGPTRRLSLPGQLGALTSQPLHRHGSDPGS
T2 sequence (P08684 whole entry): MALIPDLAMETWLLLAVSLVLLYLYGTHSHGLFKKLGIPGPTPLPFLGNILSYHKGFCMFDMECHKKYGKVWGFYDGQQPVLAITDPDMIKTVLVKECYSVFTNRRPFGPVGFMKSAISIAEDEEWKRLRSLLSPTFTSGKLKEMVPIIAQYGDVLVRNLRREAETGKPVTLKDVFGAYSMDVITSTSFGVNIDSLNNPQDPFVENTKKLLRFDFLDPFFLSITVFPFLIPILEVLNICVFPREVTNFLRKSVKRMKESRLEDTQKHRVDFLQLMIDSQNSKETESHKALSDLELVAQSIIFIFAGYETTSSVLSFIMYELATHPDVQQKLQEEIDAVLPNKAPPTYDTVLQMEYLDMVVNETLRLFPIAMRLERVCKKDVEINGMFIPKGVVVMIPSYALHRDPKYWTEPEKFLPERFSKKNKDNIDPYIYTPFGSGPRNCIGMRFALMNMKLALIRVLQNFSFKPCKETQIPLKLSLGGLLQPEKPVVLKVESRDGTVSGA
Sequence of Somatostatin receptor type 2 (Rattus norvegicus, UniProt P30680) (P30680 whole entry): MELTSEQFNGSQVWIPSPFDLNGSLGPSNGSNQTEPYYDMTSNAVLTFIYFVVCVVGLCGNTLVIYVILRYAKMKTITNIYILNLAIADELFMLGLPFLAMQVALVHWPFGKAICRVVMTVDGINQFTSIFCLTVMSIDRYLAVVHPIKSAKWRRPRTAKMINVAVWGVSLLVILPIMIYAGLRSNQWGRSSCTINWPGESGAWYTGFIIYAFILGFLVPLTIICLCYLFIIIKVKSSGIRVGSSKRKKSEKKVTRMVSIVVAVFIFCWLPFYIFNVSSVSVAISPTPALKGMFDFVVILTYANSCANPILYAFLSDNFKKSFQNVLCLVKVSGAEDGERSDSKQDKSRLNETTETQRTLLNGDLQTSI
Sequence of Cytochrome P450 2D6 (P10635 whole entry): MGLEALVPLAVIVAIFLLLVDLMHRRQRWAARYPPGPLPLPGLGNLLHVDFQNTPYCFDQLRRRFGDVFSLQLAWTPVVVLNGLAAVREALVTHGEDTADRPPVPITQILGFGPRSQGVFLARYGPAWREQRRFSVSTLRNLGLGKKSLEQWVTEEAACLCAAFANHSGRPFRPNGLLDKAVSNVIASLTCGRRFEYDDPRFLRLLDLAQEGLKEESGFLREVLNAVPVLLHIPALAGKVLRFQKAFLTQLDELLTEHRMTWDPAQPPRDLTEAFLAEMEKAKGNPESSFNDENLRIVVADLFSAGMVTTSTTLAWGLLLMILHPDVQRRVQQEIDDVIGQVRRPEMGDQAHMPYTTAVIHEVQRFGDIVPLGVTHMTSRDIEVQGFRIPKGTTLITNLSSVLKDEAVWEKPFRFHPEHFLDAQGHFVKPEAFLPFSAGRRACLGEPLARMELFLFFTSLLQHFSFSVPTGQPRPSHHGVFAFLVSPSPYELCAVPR
Sequence of Cytochrome P450 2C9 (P11712 whole entry): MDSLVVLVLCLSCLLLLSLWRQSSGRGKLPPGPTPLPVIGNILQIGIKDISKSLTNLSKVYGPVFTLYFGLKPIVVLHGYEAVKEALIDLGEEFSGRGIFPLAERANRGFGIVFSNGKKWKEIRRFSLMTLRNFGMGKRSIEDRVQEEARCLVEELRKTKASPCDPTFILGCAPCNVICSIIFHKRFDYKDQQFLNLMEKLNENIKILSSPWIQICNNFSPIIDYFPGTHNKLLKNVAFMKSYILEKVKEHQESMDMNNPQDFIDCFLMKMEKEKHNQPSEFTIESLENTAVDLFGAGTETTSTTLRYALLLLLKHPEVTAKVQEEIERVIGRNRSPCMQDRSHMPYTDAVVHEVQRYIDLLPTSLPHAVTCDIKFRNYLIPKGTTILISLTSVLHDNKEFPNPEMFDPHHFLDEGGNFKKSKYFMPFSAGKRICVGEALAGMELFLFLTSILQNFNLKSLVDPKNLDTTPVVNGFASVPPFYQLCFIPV

Turning to `Cc1cc(Cl)cc(N2C=Nc3cc(C)c(-c4ccccc4)cc3C2C(=O)N(C)C[C@@H]2CCCN2)c1` (stereo not given in full), the EC50 in data set [1] (read-out: EC50) was found to be 56 nM.
For `Cc1cc(Cl)cc(N2C=Nc3cc(C)c(-c4cc(F)cc(C(N)=O)c4)cc3C2C(=O)N(C)C[C@@H]2CCCN2)c1` (stereo not given in full), the EC50 in data set [2] is 0.158 nM; in data set [1] (read-out: EC50), 0.15 nM; in [3], 7.94 nM; in [4] it was over 1000 nM; in [5], over 1000 nM; in data set [8], over 1000 nM. Further, the IC50 at Cytochrome P450 3A4 [6] is 1000 nM; in [7] (read-out: pIC50 (converted)), 2510 nM.
On to `Cc1cc(Cl)cc(N2C=Nc3cc(C)c(-c4cccc(O)c4)cc3C2C(=O)N(C)C[C@@H]2CCCN2)c1` (stereo not given in full), for which the EC50 in data set [1] (read-out: EC50) was 0.33 nM.
As to `Cc1cc(Cl)cc(N2C=Nc3cc(C)c(-c4cccc(C(F)(F)F)c4)cc3C2C(=O)N(C)C[C@@H]2CCCN2)c1` (stereo not given in full), the EC50 in data set [1] (read-out: EC50) came out at 53 nM.
`Cc1cc(Cl)cc(N2C=Nc3cc(C)c(-c4cccc(C#N)c4)cc3C2C(=O)N(C)C[C@@H]2CCCN2)c1` (stereo not given in full): in [1] (read-out: EC50), the EC50 came to 5.4 nM.
Consider `Cc1cc(Cl)cc(N2C=Nc3cc(C)c(-c4cccc(F)c4O)cc3C2C(=O)N(C)CC2CCCN2)c1` (stereo not given), for which the EC50 in data set [9] is 0.54 nM. The bioavailability in [10] is under 5%.
For the molecule `Cc1cc(Cl)cc(N2C=Nc3cc(C)c(-c4ccc5[nH]c(=O)[nH]c5c4)cc3C2C(=O)N(C)C[C@@H]2CCCN2)c1` (stereo not given in full), in data set [1] (read-out: EC50), the EC50 was found to be 4.6 nM.
Same read-out and setting: to `Cc1cc(F)cc(N2C=Nc3cc(C)c(-c4cccc(O)c4)cc3C2C(=O)N(C)C[C@@H]2CCCN2)c1` (stereo not given in full) belongs 0.98 nM; to `Cc1cc(Cl)cc(N2C=Nc3cc(C)c(-c4cccc(NS(C)(=O)=O)c4)cc3C2C(=O)N(C)C[C@@H]2CCCN2)c1` (stereo not given in full), 130 nM.
On the same count and under the same terms, to `COc1cc(F)cc(-c2cc3c(cc2C)N=CN(c2cc(C)cc(Cl)c2)C3C(=O)N(C)C[C@@H]2CCCN2)c1` (stereo not given in full) belongs 6.1 nM.
Still for that read-out and setting: to `Cc1cc(Cl)cc(N2C=Nc3cc(C)c(-c4cnn(C)c4)cc3C2C(=O)N(C)C[C@@H]2CCCN2)c1` (stereo not given in full) belongs 170 nM.
For the molecule `Cc1cc(C)cc(N2C=Nc3cc(Cl)c(-c4cccc(O)c4)cc3C2C(=O)NC[C@H](C)N)c1` (stereo not given in full), the EC50 in [1] (cho-k1, read-out: EC50) was over 1000 nM; in data set [1] (read-out: pEC50 (converted)) it was over 1000 nM.
Regarding `Cc1cc(Cl)cc(N2C=Nc3cc(C)c(-c4cccc(F)c4O)cc3C2C(=O)N(C)C[C@@H]2CCCN2)c1` (stereo not given in full), the “inhibition (INH)” value is recorded as “Not Active” on Cytochrome P450 2C19, “Active” at Cytochrome P450 3A4 [11], “Not Active” against Cytochrome P450 2D6 and “Not Active” at Cytochrome P450 2C9. The results for the EC50 in data set [3], in [5] and in [8] were 158 nM, over 1000 nM and over 1000 nM, respectively. Also, the IC50 in data set [7] (read-out: pIC50 (converted)) is 5010 nM.
For the molecule `Cc1cc(Cl)cc(N2C=Nc3cc(C)c(-c4cc(F)cc(F)c4)cc3C2C(=O)N(C)C[C@@H]2CCCN2)c1` (stereo not given in full), in [1] (read-out: EC50), the EC50 worked out at 3.7 nM.
As to `Cc1cc(Cl)cc(N2C=Nc3cc(C)c(-c4cc(O)ccc4F)cc3C2C(=O)N(C)C[C@@H]2CCCN2)c1` (stereo not given in full), the EC50 was 0.2 nM in data set [2], 0.2 nM in data set [1] (read-out: EC50) and over 1000 nM in data set [5]. In addition, the IC50 in data set [7] (read-out: IC50) was under 1000 nM; in data set [7] (read-out: pIC50 (converted)) it was 501 nM.
Take `Cc1cc(Cl)cc(N2C=Nc3cc(C)c(-c4cc(F)cc(C#N)c4)cc3C2C(=O)N(C)C[C@@H]2CCCN2)c1` (stereo not given in full): the EC50 was 1.26 nM in [2]; 1.3 nM in [1] (read-out: EC50); 3.98 nM in [3]; 631 nM in data set [4]; over 1000 nM in data set [5].
With `CC[C@H](N)CN(C)C(=O)C1c2cc(-c3cccc(O)c3)c(C)cc2N=CN1c1cc(C)cc(C)c1` (stereo not given in full), the EC50 in [1] (read-out: EC50) came to 4.2 nM.
Still for that read-out and setting: with `Cc1cc(C)cc(N2C=Nc3cc(C)c(-c4cccc(O)c4)cc3C2C(=O)N(C)C[C@@H]2CCCN2)c1` (stereo not given in full) the figure was 1.3 nM.
On the same count and under the same terms, to `Cc1cc(Cl)cc(N2C=Nc3cc(C)c(-c4cc(F)ccc4O)cc3C2C(=O)N(C)C[C@@H]2CCCN2)c1` (stereo not given in full) belongs 2.1 nM.
With `Cc1cc(C)cc(N2C=Nc3ccc(-c4cccc(O)c4)cc3C2C(=O)N(C)C[C@H](C)N)c1` (stereo not given in full), the EC50 in data set [1] (cho-k1, read-out: EC50) is over 1000 nM; in data set [1] (read-out: pEC50 (converted)), over 1000 nM.
As to `Cc1cc(Cl)cc(N2C=Nc3cc(C)c(-c4cc(O)cc(F)c4)cc3C2C(=O)N(C)C[C@@H]2CCCN2)c1` (stereo not given in full), the EC50 in [2] was 0.126 nM; in [1] (read-out: EC50), 0.12 nM; in data set [3], 7.94 nM; in [4] it was 251 nM; in data set [5] it was over 1000 nM; in data set [8], over 1000 nM. For the same molecule, the results for the IC50 in data set [7] (read-out: IC50) and in [7] (read-out: pIC50 (converted)) were under 1000 nM and 631 nM, respectively.
Take `Cc1cc(Cl)cc(N2C=Nc3cc(C)c(-c4cccc(-c5nnn[nH]5)c4)cc3C2C(=O)N(C)C[C@@H]2CCCN2)c1` (stereo not given in full): the EC50 in [1] (cho-k1, read-out: EC50) was over 1000 nM; in data set [1] (read-out: pEC50 (converted)), over 1000 nM.
Regarding `Cc1cc(Cl)cc(N2C=Nc3cc(C)c(-c4cccc(Cl)c4)cc3C2C(=O)N(C)C[C@@H]2CCCN2)c1` (stereo not given in full), the EC50 in [1] (read-out: EC50) was determined as 39 nM.
Same read-out and setting: with `Cc1cc(Cl)cc(N2C=Nc3cc(C)c(-c4cncc(C#N)c4)cc3C2C(=O)N(C)C[C@@H]2CCCN2)c1` (stereo not given in full) the figure was 11 nM.
On the same count and under the same terms, with `Cc1cc(Cl)cc(N2C=Nc3cc(C)c(-c4cc(O)cc(C#N)c4)cc3C2C(=O)N(C)C[C@@H]2CCCN2)c1` (stereo not given in full) the figure was 0.36 nM; with `CC[C@H](N)CN(C)C(=O)C1c2cc(-c3cccc(O)c3)c(Cl)cc2N=CN1c1cc(C)cc(C)c1` (stereo not given in full), 11 nM.
The same measure, in the same setting: with `Cc1cc(Cl)cc(N2C=Nc3cc(C)c(-c4cncc(O)c4)cc3C2C(=O)N(C)C[C@@H]2CCCN2)c1` (stereo not given in full) the figure was 8.1 nM.

Values taken from ChEMBL document CHEMBL4665730, “Discovery of nonpeptide 3,4-dihydroquinazoline-4-carboxamides as potent and selective sst2 agonists” (Bioorg Med Chem Lett, 2020).
